# Data taken from ChEMBL document CHEMBL2203210, “SAR and in vivo evaluation of 4-aryl-2-aminoalkylpyrimidines as potent and selective Janus kinase 2 (JAK2) inhibitors” (Bioorg Med Chem Lett, 2012).
# What was measured:
# [1] = Inhibition of p-gp
# [2] = target: Voltage-gated inwardly rectifying potassium channel KCNH2 (Homo sapiens, UniProt Q12809); assay: Inhibition of human ERG
# Cytochrome P450 2D6 = Cytochrome P450 2D6 (Homo sapiens, UniProt P10635); assay: Inhibition of CYP2D6; assay type: ADME
# Cytochrome P450 1A2 = Cytochrome P450 1A2 (Homo sapiens, UniProt P05177); assay: Inhibition of CYP1A2; assay type: ADME
# Sequence of Cytochrome P450 1A2 (P05177 whole entry): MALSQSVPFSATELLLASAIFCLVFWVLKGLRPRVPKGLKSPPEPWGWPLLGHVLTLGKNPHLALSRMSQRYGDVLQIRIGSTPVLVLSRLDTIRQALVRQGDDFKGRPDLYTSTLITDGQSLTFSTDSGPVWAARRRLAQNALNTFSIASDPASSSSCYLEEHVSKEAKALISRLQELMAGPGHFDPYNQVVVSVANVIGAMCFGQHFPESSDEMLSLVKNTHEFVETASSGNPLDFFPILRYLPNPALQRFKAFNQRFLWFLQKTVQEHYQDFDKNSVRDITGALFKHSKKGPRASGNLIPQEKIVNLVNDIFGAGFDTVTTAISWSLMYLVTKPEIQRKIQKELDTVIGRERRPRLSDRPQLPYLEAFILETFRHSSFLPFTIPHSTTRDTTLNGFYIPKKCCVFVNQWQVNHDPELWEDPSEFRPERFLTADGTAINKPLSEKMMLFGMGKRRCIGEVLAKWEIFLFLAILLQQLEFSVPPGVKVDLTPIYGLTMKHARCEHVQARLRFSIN
# [3] = target: Vascular endothelial growth factor receptor 1 (Homo sapiens, UniProt P17948); assay: Inhibition of FLT1
# Sequence of Vascular endothelial growth factor receptor 1 (P17948 whole entry): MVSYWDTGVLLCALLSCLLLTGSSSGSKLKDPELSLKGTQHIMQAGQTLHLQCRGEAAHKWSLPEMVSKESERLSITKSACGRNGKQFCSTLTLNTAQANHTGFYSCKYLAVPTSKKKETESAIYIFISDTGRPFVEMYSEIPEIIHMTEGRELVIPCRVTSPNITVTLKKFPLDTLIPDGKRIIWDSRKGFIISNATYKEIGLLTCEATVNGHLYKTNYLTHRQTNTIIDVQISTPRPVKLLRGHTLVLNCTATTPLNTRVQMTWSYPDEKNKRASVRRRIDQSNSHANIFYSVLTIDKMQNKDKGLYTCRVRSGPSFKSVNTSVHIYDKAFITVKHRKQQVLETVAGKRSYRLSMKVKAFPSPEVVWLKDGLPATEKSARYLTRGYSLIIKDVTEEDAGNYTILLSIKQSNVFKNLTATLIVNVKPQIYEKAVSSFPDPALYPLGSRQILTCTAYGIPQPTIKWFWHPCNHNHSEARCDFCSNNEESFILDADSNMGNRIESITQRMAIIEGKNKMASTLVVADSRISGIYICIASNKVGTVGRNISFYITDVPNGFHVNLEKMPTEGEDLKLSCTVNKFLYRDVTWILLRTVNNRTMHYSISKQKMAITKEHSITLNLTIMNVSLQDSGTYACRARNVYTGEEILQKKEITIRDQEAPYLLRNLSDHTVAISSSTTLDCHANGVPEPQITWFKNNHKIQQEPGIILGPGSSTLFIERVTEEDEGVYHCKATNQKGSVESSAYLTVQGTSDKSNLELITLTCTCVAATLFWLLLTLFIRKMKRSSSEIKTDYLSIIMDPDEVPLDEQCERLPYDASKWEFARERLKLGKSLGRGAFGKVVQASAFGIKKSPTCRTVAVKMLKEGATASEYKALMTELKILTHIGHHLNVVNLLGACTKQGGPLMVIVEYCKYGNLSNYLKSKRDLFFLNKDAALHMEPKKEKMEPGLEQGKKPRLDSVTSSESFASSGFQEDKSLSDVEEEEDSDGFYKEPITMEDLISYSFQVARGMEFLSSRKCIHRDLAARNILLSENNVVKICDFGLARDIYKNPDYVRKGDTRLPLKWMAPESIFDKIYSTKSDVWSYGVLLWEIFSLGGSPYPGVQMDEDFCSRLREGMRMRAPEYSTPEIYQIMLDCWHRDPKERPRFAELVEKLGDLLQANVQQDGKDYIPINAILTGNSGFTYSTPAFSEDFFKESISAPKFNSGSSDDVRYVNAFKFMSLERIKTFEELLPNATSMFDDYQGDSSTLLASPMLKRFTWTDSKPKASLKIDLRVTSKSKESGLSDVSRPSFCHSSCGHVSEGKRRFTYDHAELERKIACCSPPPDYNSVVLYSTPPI
# [4] = target: Vascular endothelial growth factor receptor 2 (Homo sapiens, UniProt P35968); assay: Inhibition of KDR
# [5] = target: Platelet-derived growth factor receptor beta (Homo sapiens, UniProt P09619); assay: Inhibition of PDGFRB
# [6] = target: Mast/stem cell growth factor receptor Kit (Homo sapiens, UniProt P10721); assay: Inhibition of c-KIT
# Sequence of Mast/stem cell growth factor receptor Kit (P10721 whole entry): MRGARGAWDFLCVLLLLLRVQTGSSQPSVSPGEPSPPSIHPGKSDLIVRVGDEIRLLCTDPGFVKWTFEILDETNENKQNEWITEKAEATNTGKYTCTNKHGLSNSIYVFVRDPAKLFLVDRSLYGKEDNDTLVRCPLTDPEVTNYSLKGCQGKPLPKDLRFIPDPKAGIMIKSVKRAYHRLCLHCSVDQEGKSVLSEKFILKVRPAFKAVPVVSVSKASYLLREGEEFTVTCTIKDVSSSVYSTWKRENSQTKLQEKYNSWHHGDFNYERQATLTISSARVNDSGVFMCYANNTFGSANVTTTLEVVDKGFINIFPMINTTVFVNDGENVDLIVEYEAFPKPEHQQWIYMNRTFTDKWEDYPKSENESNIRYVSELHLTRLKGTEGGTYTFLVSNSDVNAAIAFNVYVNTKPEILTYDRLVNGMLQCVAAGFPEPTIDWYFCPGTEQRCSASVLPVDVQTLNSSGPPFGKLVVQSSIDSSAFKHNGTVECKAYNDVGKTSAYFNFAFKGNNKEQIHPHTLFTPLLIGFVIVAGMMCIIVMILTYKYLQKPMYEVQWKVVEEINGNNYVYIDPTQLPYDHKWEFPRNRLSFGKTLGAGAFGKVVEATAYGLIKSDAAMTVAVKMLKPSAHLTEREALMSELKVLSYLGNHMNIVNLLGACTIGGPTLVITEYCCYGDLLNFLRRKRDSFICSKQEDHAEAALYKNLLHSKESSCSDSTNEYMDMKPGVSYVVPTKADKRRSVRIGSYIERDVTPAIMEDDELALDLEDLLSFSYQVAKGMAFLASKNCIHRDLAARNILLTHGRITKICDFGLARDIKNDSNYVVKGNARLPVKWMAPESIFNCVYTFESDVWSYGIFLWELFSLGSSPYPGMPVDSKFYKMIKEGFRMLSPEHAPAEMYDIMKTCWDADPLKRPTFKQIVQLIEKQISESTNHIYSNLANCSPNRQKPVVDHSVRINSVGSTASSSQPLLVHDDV
# [7] = target: Ribosomal protein S6 kinase beta-1 (Homo sapiens, UniProt P23443); assay: Inhibition of P70S6K
# [8] = target: Platelet-derived growth factor receptor alpha (Homo sapiens, UniProt P16234); assay: Inhibition of PDGFRA
# [9] = target: Non-receptor tyrosine-protein kinase TYK2 (Homo sapiens, UniProt P29597); assay: Inhibition of TYK2
# [10] = target: Inhibitor of nuclear factor kappa-B kinase subunit beta (Homo sapiens, UniProt O14920); assay: Inhibition of IKKbeta
# [11] = target: Receptor-type tyrosine-protein kinase FLT3 (Homo sapiens, UniProt P36888); assay: Inhibition of FLT3
# [12] = target: Mitogen-activated protein kinase kinase kinase 9 (Homo sapiens, UniProt P80192); assay: Inhibition of MLK1
# Sequence of Mitogen-activated protein kinase kinase kinase 9 (P80192 whole entry): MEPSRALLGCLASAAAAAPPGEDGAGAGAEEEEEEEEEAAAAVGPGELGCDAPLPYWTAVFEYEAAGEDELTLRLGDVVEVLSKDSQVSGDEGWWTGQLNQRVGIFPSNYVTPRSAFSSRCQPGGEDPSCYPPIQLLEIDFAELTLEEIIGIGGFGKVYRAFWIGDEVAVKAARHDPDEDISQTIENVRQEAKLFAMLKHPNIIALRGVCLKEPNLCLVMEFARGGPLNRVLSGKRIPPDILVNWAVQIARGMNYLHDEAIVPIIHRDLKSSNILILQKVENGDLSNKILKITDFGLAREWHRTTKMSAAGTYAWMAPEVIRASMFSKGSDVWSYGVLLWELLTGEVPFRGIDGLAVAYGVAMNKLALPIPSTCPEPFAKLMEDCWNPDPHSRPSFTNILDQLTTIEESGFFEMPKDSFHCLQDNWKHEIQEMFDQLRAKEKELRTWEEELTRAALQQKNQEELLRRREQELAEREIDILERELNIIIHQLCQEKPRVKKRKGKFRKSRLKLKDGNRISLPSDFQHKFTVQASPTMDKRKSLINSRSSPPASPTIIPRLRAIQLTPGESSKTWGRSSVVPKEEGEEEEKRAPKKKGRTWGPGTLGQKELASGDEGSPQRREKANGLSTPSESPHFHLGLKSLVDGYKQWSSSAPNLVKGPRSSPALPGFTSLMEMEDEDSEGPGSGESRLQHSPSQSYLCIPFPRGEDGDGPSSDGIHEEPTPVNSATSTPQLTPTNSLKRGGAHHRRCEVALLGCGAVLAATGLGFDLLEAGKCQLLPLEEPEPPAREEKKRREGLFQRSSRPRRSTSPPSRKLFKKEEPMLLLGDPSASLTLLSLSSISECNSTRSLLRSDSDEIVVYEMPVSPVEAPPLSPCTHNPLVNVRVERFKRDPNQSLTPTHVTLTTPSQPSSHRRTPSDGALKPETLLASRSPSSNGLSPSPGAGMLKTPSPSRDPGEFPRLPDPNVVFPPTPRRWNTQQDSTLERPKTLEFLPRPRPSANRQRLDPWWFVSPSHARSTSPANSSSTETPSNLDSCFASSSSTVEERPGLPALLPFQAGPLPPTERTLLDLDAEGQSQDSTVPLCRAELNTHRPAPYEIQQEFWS
# [13] = target: Tyrosine-protein kinase JAK1 (Homo sapiens, UniProt P23458); assay: Inhibition of JAK1
# Sequence of Tyrosine-protein kinase JAK1 (P23458 whole entry): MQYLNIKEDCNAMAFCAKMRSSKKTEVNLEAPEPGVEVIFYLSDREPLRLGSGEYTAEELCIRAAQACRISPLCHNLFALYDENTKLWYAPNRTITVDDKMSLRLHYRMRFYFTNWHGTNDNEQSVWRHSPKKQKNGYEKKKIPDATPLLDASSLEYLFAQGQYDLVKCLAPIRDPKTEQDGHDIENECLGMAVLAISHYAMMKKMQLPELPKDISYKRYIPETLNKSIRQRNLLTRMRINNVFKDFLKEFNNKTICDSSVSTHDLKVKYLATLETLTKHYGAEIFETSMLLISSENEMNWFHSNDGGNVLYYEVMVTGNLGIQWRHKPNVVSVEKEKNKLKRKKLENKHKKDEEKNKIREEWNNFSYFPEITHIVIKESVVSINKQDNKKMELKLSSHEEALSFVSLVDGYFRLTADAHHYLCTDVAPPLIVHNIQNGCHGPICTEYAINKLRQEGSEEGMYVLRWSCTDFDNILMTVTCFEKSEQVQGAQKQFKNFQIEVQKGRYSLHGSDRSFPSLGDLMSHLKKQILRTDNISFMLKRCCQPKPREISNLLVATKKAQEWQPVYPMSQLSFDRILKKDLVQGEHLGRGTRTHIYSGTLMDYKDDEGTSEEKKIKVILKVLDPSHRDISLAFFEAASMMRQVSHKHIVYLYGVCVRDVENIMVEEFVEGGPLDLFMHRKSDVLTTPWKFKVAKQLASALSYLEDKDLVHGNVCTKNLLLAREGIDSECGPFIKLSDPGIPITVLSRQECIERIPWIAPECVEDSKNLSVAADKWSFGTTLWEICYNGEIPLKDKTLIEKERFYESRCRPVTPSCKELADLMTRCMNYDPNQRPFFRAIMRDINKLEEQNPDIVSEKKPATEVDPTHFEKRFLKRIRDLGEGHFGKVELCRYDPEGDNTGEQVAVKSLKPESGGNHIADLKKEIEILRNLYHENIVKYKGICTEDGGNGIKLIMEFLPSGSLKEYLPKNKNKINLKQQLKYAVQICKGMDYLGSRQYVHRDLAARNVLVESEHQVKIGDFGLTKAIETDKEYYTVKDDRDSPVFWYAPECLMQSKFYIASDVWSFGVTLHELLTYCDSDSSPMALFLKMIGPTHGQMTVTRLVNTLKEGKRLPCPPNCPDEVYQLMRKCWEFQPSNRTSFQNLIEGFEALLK
# Cynomolgus monkey [14] = assay: Dose normalized AUC in cynomolgus monkey at 3 mg/kg, po; assay type: ADME, organism-based, Macaca fascicularis; design: dose 3 mg/kg, route oral; details: in vivo
# Canis familiaris = assay: Dose normalized AUC in Beagle dog at 3 mg/kg, po; assay type: ADME, organism-based, Canis lupus familiaris; design: dose 3 mg/kg, route oral; details: in vivo
# Rattus norvegicus [15] = assay: Dose normalized AUC in CD rat at 5 mg/kg, po; assay type: ADME, organism-based; design: dose 5 mg/kg, route oral; details: in vivo
# Mus musculus [16] = assay: Dose normalized AUC in athymic nude mouse at 10 mg/kg, po; assay type: ADME, organism-based; design: dose 10 mg/kg, route oral; details: in vivo
# Cynomolgus monkey [17] = assay: Dose normalized AUC in cynomolgus monkey at 3 mg/kg, iv; assay type: ADME, organism-based, Macaca fascicularis; design: dose 3 mg/kg, route intravenous; details: in vivo
# Mus musculus [18] = assay: Dose normalized AUC in athymic nude mouse at 10 mg/kg, iv; assay type: ADME, organism-based; design: dose 10 mg/kg, route intravenous; details: in vivo
# [19] = Cmax in Beagle dog at 3 mg/kg, po; assay type: ADME, organism-based, Canis lupus familiaris; design: dose 3 mg/kg, route oral; details: in vivo
# [20] = Cmax in cynomolgus monkey at 3 mg/kg, po; assay type: ADME, organism-based, Macaca fascicularis; design: dose 3 mg/kg, route oral; details: in vivo
# [21] = Cmax in CD rat at 5 mg/kg, po; assay type: ADME, organism-based; design: dose 5 mg/kg, route oral; details: in vivo
# [22] = Cmax in athymic nude mouse at 10 mg/kg, po; assay type: ADME, organism-based; design: dose 10 mg/kg, route oral; details: in vivo
# [23] = Cmax in Beagle dog at 3 mg/kg, iv; assay type: ADME, organism-based, Canis lupus familiaris; design: dose 3 mg/kg, route intravenous; details: in vivo
# [24] = Cmax in cynomolgus monkey at 3 mg/kg, iv; assay type: ADME, organism-based, Macaca fascicularis; design: dose 3 mg/kg, route intravenous; details: in vivo
# [25] = Cmax in athymic nude mouse at 10 mg/kg, iv; assay type: ADME, organism-based; design: dose 10 mg/kg, route intravenous; details: in vivo
# [26] = Oral bioavailability in cynomolgus monkey at 3 mg/kg; assay type: ADME, organism-based, Macaca fascicularis; details: in vivo
# [27] = Oral bioavailability in athymic nude mouse at 10 mg/kg; assay type: ADME, organism-based; details: in vivo
# [28] = Oral bioavailability in CD rat at 5 mg/kg; assay type: ADME, organism-based; details: in vivo
# [29] = Half life in Beagle dog at 3 mg/kg, po; assay type: ADME, organism-based, Canis lupus familiaris; design: dose 3 mg/kg, route oral; details: in vivo
# [30] = Half life in cynomolgus monkey at 3 mg/kg, po; assay type: ADME, organism-based, Macaca fascicularis; design: dose 3 mg/kg, route oral; details: in vivo
# [31] = Half life in CD rat at 5 mg/kg, po; assay type: ADME, organism-based; design: dose 5 mg/kg, route oral; details: in vivo
# [32] = Half life in cynomolgus monkey at 3 mg/kg, iv; assay type: ADME, organism-based, Macaca fascicularis; design: dose 3 mg/kg, route intravenous; details: in vivo
# [33] = Half life in athymic nude mouse at 10 mg/kg, po; assay type: ADME, organism-based; design: dose 10 mg/kg, route oral; details: in vivo
# [34] = Half life in Beagle dog at 3 mg/kg, iv; assay type: ADME, organism-based, Canis lupus familiaris; design: dose 3 mg/kg, route intravenous; details: in vivo
# [35] = Half life in CD rat at 5 mg/kg, iv; assay type: ADME, organism-based; design: dose 5 mg/kg, route intravenous; details: in vivo
# [36] = Half life in athymic nude mouse at 10 mg/kg, iv; assay type: ADME, organism-based; design: dose 10 mg/kg, route intravenous; details: in vivo
# Cynomolgus monkey [37] = assay: Volume of distribution in cynomolgus monkey at 3 mg/kg, po and iv; assay type: ADME, organism-based, Macaca fascicularis; design: dose 3 mg/kg, route oral; details: in vivo
# Rattus norvegicus [38] = assay: Volume of distribution in CD rat at 5 mg/kg, po and iv; assay type: ADME, organism-based; design: dose 5 mg/kg, route oral; details: in vivo
# [39] = Metabolic stability in mouse liver microsomes assessed as compound remaining after 30 mins; assay type: ADME, Microsome; details: read-out: Stability
# HEL [40] = assay: Induction of apoptosis in HEL 92.1.7 cells xenografted in nude mouse at 300 mg/kg, po bid relative to vehicle-treated control; assay type: functional, Homo sapiens
# HEL [41] = assay: Anitumour activity against HEL 92.1.7 cells xenografted in nude mouse assessed as tumor growth inhibition at 300 mg/kg, po bid administered up to 14 days relative to vehicle-treated control; assay type: functional, Homo sapiens; details: 336 h, read-out: TGI
# HEL [42] = assay: Anitumour activity against HEL 92.1.7 cells xenografted in nude mouse assessed as tumor growth inhibition at 200 mg/kg, po bid administered up to 14 days relative to vehicle-treated control; assay type: functional, Homo sapiens; details: 336 h, read-out: TGI
# Mus musculus [43] = assay: Inhibition of JAK2 in HEL 92.1.7 cells xenografted in po dosed nude mouse assessed as inhibition of STAT3 phosphorylation after 4 hrs; assay type: functional, organism-based
# Mus musculus [44] = assay: Inhibition of JAK2 in HEL 92.1.7 cells xenografted in nude mouse assessed as inhibition of STAT3 phosphorylation at 300 mg/kg, po after 4 hrs relative to vehicle-treated control; assay type: functional
# Mus musculus [45] = assay: Inhibition of JAK2 in HEL 92.1.7 cells xenografted in po dosed nude mouse assessed as inhibition of STAT1 phosphorylation after 4 hrs; assay type: functional, organism-based
# Mus musculus [46] = assay: Inhibition of JAK2 in HEL 92.1.7 cells xenografted in nude mouse assessed as inhibition of STAT3 phosphorylation at 100 mg/kg, po after 4 hrs relative to vehicle-treated control; assay type: functional
# Mus musculus [47] = assay: Inhibition of JAK2 in HEL 92.1.7 cells xenografted in nude mouse assessed as inhibition of STAT3 phosphorylation at 30 mg/kg, po after 4 hrs relative to vehicle-treated control; assay type: functional
# Mus musculus [48] = assay: Inhibition of JAK2 in HEL 92.1.7 cells xenografted in nude mouse assessed as inhibition of STAT1 phosphorylation at 100 mg/kg, po after 4 hrs relative to vehicle-treated control; assay type: functional
# [49] = Drug uptake in nude mouse xenografted with HEL 92.1.7 cells at 300 mg/kg, po after 4 hrs; assay type: ADME, organism-based; design: dose 300 mg/kg, route oral; details: in vivo, read-out: Drug uptake
# [50] = Drug uptake in nude mouse xenografted with HEL 92.1.7 cells at 100 mg/kg, po after 4 hrs; assay type: ADME, organism-based; design: dose 100 mg/kg, route oral; details: in vivo, read-out: Drug uptake
# [51] = Drug uptake in nude mouse xenografted with HEL 92.1.7 cells at 30 mg/kg, po after 4 hrs; assay type: ADME, organism-based; design: dose 30 mg/kg, route oral; details: in vivo, read-out: Drug uptake
# [52] = Plasma concentration in nude mouse xenografted with HEL 92.1.7 cells at 100 mg/kg, po after 4 hrs; assay type: ADME, organism-based; design: dose 100 mg/kg, route oral
# [53] = Plasma concentration in nude mouse xenografted with HEL 92.1.7 cells at 30 mg/kg, po after 4 hrs; assay type: ADME, organism-based; design: dose 30 mg/kg, route oral
structure (smiles),measurement,setting,value
O=C(Nc1ccc(-c2ccnc(Nc3ccc(N4CCOCC4)cc3)n2)cc1)[C@H]1CCCN1,INH,[1],> 20 µM
same,INH,[2],16 µM
same,INH,Cytochrome P450 2D6,>= 20 uM
same,INH,Cytochrome P450 1A2,>= 20 uM
same,IC50,[3],910 nM
same,IC50,[4],484 nM
same,IC50,[5],125 nM
same,IC50,[6],226 nM
same,IC50,[7],314 nM
same,IC50,[8],547 nM
same,IC50,[9],348 nM
same,IC50,[10],375 nM
same,IC50,[11],140 nM
same,IC50,[12],370 nM
same,IC50,[13],134 nM
same,AUC/dose,Cynomolgus monkey [14],1.2 µM·kg·h/mg
same,AUC/dose,Canis familiaris,0.68 µM·kg·h/mg
same,AUC/dose,Rattus norvegicus [15],8.54 µM·kg·h/mg
same,AUC/dose,Mus musculus [16],0.21 µM·kg·h/mg
same,AUC/dose,Cynomolgus monkey [17],1.76 µM·kg·h/mg
same,AUC/dose,Mus musculus [18],0.42 µM·kg·h/mg
same,Cmax,[19],170 nM
same,Cmax,[20],490 nM
same,Cmax,[21],3530 nM
same,Cmax,[22],570 nM
same,Cmax,[23],440 nM
same,Cmax,[24],640 nM
same,Cmax,[25],5240 nM
same,bioavailability,[26],68.6%
same,bioavailability,[27],54.5%
same,bioavailability,[28],53.6%
same,half-life,[29],5.06 h
same,half-life,[30],3.36 h
same,half-life,[31],3.23 h
same,half-life,[32],3.28 h
same,half-life,[33],1.94 h
same,half-life,[34],6 h
same,half-life,[35],3.12 h
same,half-life,[36],1.13 h
same,Vd,Cynomolgus monkey [37],6.739 L/kg
same,Vd,Rattus norvegicus [38],0.666 L/kg
same,remaining at 0.5 h,[39],62%
same,fold change (FC),HEL [40],11.3
same,inhibition in vivo at 300 mg/kg,HEL [41],70%
same,inhibition in vivo at 200 mg/kg,HEL [42],60%
same,IC50,Mus musculus [43],13000 nM
same,ED50,Mus musculus [43]; po,210 mg/kg
same,inhibition in vivo at 300 mg/kg,Mus musculus [44],55%
same,IC50,Mus musculus [45],1390 nM
same,ED50,Mus musculus [45]; po,42 mg/kg
same,inhibition in vivo at 100 mg/kg,Mus musculus [46],40%
same,inhibition in vivo at 30 mg/kg,Mus musculus [47],9%
same,inhibition in vivo at 100 mg/kg,Mus musculus [48],72%
same,concentration at 4 h,[49],62400 nM
same,concentration at 4 h,[50],240000 nM
same,concentration at 4 h,[51],2000 nM
same,concentration at 4 h,[52],5350 nM
same,concentration at 4 h,[53],830 nM
